Legend:
[1] = biological target: T1, human dopamine D3 receptors (Homo sapiens, UniProt P35462); test: Dopamine D3 receptor binding, [125I]-iodosulpride displacement; details: membranes of HEK-293 cells with human D3 receptors, 0.1 nM [125I]-iodosulpride
T1 construct: expressed in transfected cells; host or cells: HEK-293
Description: (§1) The substance to be tested was either dissolved in methanol/Chremophor® (BASF SE) or in dimethyl sulfoxide and then diluted with water to the desired concentration.
(§2) Each assay mixture was run in triplicate. • The incubation buffer contained 50 mM tris, 120 mM NaCl, 5 mM KCl, 2 mM CaCl2, 2 mM MgCl2 and 0.1% bovine serum albumin, 10 μM quinolone and 0.1% ascorbic acid (prepared fresh daily). […] Each assay mixture was run in triplicate. • The incubation buffer contained 50 mM tris, 120 mM NaCl, 5 mM KCl, 2 mM CaCl2, 2 mM MgCl2 and 0.1% bovine serum albumin. The buffer was adjusted to pH 7.4 with HCl. c) Measurement and Analysis: • After having been incubated at 25° C. for 60 minutes, the assay mixtures were filtered through a Whatman GF/B glass fiber filter under vacuum using a cell collecting device. The filters were transferred to scintillation viols using a filter transfer system. After 4 ml of Ultima Gold® (Packard) have been added, the samples were shaken for one hour and the radioactivity was then counted in a Beta-Counter (Packard, Tricarb 2000 or 2200CA).

[2] = biological target: T2, human dopamine D2L receptors (long isoform) (Homo sapiens, UniProt P14416); test: Dopamine D2L receptor binding, [125I]-iodospiperone displacement; details: selectivity ratio Ki (D2L)/Ki (D3)
T2 construct: expressed in transfected cells; host or cells: HEK-293
Description: as §1, §2

[3] = Determination of the microsomal half-life / microsomal clearance; type: in vitro ADME; details: human liver microsomes, 0.5 μM test substance, 0.25 mg microsomal protein/ml, pH 7.4, 37° C.
Description: The metabolic stability of the compounds of the invention was determined in the following assay.
The test substances were incubated in a concentration of 0.5 μM as follows:
0.5 μM test substance are preincubated together with liver microsomes from different species (from rat, human or other species) (0.25 mg of microsomal protein/ml) in 0.05 M potassium phosphate buffer of pH 7.4 in microtiter plates at 37° C. for 5 min. The reaction is started by adding NADPH (1 mg/mL). After 0, 5, 10, 15, 20 and 30 min, 50 μl aliquots are removed, and the reaction is immediately stopped and cooled with the same volume of acetonitrile. The samples are frozen until analyzed. The remaining concentration of undegraded test substance is determined by MSMS. The half-life (T1/2) is determined from the gradient of the signal of test substance/unit time plot, it being possible to calculate the half-life of the test substance, assuming first order kinetics, from the decrease in the concentration of the compound with time. The microsomal clearance (mCl) is calculated from mCl=1n2/T1/2/(content of microsomal protein in mg/ml)×1000 [[…]] (modified from references: Di, The Society for Biomoleculur Screening, 2003, 453-462; Obach, DMD, 1999 vol 27. N 11, 1350-1359).

T1 sequence (P35462 whole entry): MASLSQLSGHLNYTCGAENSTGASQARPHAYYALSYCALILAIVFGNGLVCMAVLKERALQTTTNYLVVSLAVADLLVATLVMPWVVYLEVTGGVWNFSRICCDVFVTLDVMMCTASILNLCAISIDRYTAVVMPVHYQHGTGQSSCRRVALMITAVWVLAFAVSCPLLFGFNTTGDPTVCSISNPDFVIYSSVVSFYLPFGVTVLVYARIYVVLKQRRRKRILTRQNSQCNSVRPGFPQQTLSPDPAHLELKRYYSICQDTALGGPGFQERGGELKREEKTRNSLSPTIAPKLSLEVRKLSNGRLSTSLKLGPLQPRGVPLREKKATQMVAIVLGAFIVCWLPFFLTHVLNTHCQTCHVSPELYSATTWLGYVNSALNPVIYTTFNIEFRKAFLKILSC
T2 sequence (P14416 whole entry, canonical isoform): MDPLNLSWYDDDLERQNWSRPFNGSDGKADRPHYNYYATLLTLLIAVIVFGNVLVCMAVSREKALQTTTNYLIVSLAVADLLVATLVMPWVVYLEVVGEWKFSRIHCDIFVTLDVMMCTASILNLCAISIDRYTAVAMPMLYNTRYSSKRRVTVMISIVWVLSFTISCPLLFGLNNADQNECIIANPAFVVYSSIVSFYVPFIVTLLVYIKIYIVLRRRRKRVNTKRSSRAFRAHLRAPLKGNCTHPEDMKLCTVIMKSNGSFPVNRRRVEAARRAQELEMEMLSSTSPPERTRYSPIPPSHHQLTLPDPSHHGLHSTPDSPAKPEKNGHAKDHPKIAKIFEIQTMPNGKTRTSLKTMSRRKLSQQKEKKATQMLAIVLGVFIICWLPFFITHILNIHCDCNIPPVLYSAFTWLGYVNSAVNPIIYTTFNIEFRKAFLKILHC

SMILES	Ki [1]	D2/D3, Ki (D2L)/Ki (D3) [2]	Human mCl [3]
COCCc1cc(N2CCN(CC[C@H]3C[C@H](NC(=O)C4CCC(O)CC4)C3)CC2)nc(C(C)(C)C)n1 (relative stereo) [Compound 11, N-[trans-3-[2-[4-[2-tert-butyl-6-(2-methoxyethyl)pyrimidin-4-yl]piperazin-1-yl]ethyl]cyclobutyl]-4-hydroxy-cyclohexanecarboxamide]	< 0.01 µM	++ (++>20)	+ (+: 20-120 μl min^−1 mg^−1)
CC(C)(C)c1nc(C2CCC2)cc(N2CCN(CC[C@H]3CC[C@H](NC(=O)C4CC(O)(C(F)(F)F)C4)CC3)CC2)n1 (relative stereo) [Compound 19, N-[trans-4-[2-[4-(2-tert-butyl-6-cyclobutyl-pyrimidin-4-yl)piperazin-1-yl]ethyl]cyclohexyl]-3-hydroxy-3-(trifluoromethyl)cyclobutanecarboxamide]	< 0.01 µM	+ (+>10)	+ (+: 20-120 μl min^−1 mg^−1)
COCCc1cc(N2CCN(CC[C@H]3CC[C@H](NC(=O)[C@H]4CC[C@H](O)CC4)CC3)CC2)nc(C(C)(C)C)n1 [Compound 2, trans-N-[trans-4-[2-[4-[2-tert-butyl-6-(2-methoxyethyl)pyrimidin-4-yl]piperazin-1-yl]ethyl]cyclohexyl]-4-hydroxy-cyclohexanecarboxamide]	< 0.01 µM	++ (++>20)	+ (+: 20-120 μl min^−1 mg^−1)
COCc1cc(N2CCN(CC[C@H]3CC[C@H](NC(=O)[C@H]4C[C@@H](O)C4)CC3)CC2)nc(C(C)(C)C)n1 [Compound 40, cis-N-[trans-4-[2-[4-[2-tert-butyl-6-(methoxymethyl)pyrimidin-4-yl]piperazin-1-yl]ethyl]cyclohexyl]-3-hydroxy-cyclobutanecarboxamide]	–	–	+ (+: 20-120 μl min^−1 mg^−1)

Continued, values first:

Ki [1]	D2/D3, Ki (D2L)/Ki (D3) [2]	Human mCl [3]	SMILES
< 0.01 µM	++ (++>20)	∘ (∘: >120 μl min^−1 mg^−1)	COCCc1cc(N2CCN(CC[C@H]3CC[C@H](NC(=O)C4CC(O)(C(F)(F)F)C4)CC3)CC2)nc(C(C)(C)C)n1 (relative stereo) [Compound 25, N-[trans-4-[2-[4-[2-tert-butyl-6-(2-methoxyethyl)pyrimidin-4-yl]piperazin-1-yl]ethyl]cyclohexyl]-3-hydroxy-3-(trifluoromethyl)cyclobutanecarboxamide]
< 0.05 µM	+++ (+++>50)	++ (++: <20 μl min^−1 mg^−1)	COCCc1cc(N2CCN(CC[C@H]3CC[C@@H](NC(=O)C4CC(O)(C(F)(F)F)C4)CC3)CC2)nc(C(C)(C)C)n1 (relative stereo) [Compound 26, N-[cis-4-[2-[4-[2-tert-butyl-6-(2-methoxyethyl)pyrimidin-4-yl]piperazin-1-yl]ethyl]cyclohexyl]-3-hydroxy-3-(trifluoromethyl)cyclobutanecarboxamide]
< 0.01 µM	++ (++>20)	+ (+: 20-120 μl min^−1 mg^−1)	COCCc1cc(N2CCN(CC[C@H]3CC[C@@H](NC(=O)[C@H]4CC[C@H](O)CC4)CC3)CC2)nc(C(C)(C)C)n1 [Compound 3, trans-N-[cis-4-[2-[4-[2-tert-butyl-6-(2-methoxyethyl)pyrimidin-4-yl]piperazin-1-yl]ethyl]cyclohexyl]-4-hydroxy-cyclohexanecarboxamide]
< 0.01 µM	++ (++>20)	∘ (∘: >120 μl min^−1 mg^−1)	COCCc1cc(N2CCN(CC[C@H]3CC[C@H](NC(=O)[C@H]4CC[C@@H](O)CC4)CC3)CC2)nc(C(C)(C)C)n1 [Compound 4, cis-N-[trans-4-[2-[4-[2-tert-butyl-6-(2-methoxyethyl)pyrimidin-4-yl]piperazin-1-yl]ethyl]cyclohexyl]-4-hydroxy-cyclohexanecarboxamide]
